Experiments:
plasma cholesterol = assay: In vivo inhibition of increases in plasma cholesterol concentrations in rats fed a cholesterol-supplemented diet; parameters: species or system rat; details: diet supplemented with cholesterol/cholic acid and 0.03% w/w test compound, after 3 days, relative to control animals fed cholesterol diet without drug
[1] = test system: acyl coenzyme-A:cholesterol-O-acyl transferase (ACAT;EC 2.3.1.26); assay: In vitro inhibition of ACAT in liver microsomes from cholesterol-fed rats, incubated with radiolabelled oleoyl-CoA; assay type: biochemical; details: 1 μg/ml, rat liver microsomes

| Structure (SMILES) | In-vitro % Inhibition (degree of ACAT inhibition) [1] | In-vivo % Inhibition (of increases in plasma cholesterol concentrations) (plasma cholesterol) |
| --- | --- | --- |
| CCCCCCCCCCOc1ccc(C(=O)Nc2cc(C(=O)NCCCC)ccc2SC)cc1 [B, N-(2-methylthio-5-butylaminocarbonyl)phenyl-4-decyloxybenzamide] | – | 92% |
| CCCCCCCCCOc1ccc(C(=O)Nc2cc(C(=O)NCCSC)ccc2OC)cc1 [F, N-[2-methoxy-5-(2-methylthioethylaminocarbonyl)]phenyl-4-nonyloxybenzamide] | 87% | – |
| CCCCCCCCCCSc1ccc(C(=O)Nc2cc(C(=O)NCCCC)ccc2OC)cc1 [G, N-(2-methoxy-5-butylaminocarbonyl)phenyl-4-(decylthio)benzamide] | 91% | – |

Continued, in another order:

| In-vitro % Inhibition (degree of ACAT inhibition) [1] | Structure (SMILES) | In-vivo % Inhibition (of increases in plasma cholesterol concentrations) (plasma cholesterol) |
| --- | --- | --- |
| 98% | CCCCCCCCCCOc1ccc(C(=O)Nc2cc(C(=O)NCCSC)ccc2SC)cc1 [C, N-[2-methylthio-5-(2-methylthioethylaminocarbonyl)]phenyl-4-decyloxybenzamide] | 91% |
| 82% | CCCCCCCCCCOc1ccc(C(=O)Nc2cc(C(=O)NCCOC)ccc2SC)cc1 [Compound A, N-[2-methylthio-5-(2-methoxyethylaminocarbonyl)]phenyl-4-decyloxybenzamide] | 100% |
| 94% | CCCCCCCCCCSc1ccc(C(=O)Nc2cc(C(=O)NCCSC)ccc2SC)cc1 [D, N-[2-methylthio-5-(2-methylthioethylaminocarbonyl)]phenyl-4-(decylthio)benzamide] | 100% |
| 83% | CCCCCCCCCCOc1ccc(C(=O)Nc2cc(C(=O)NCCSC)ccc2OC)cc1 [E, N-[2-methoxy-5-(2-methylthioethylaminocarbonyl)]phenyl-4-decyloxybenzamide] | – |

From US5159114A, “ACAT inhibitory benzanilides” (Rhone-Poulenc Sante, priority 1989, dated 1992)
